In general, IC50 refers to the midpoint of a concentration-inhibition curve. The Km is the substrate concentration at which the rate is half of its maximum.

“Also recorded” adds a separate entry of the source. Counter-ions that a name gives are not always drawn. Like-named read-outs stand apart in the source and are kept apart here. Marks after values point to notes of the source that are not given here. Some results are limits rather than exact numbers.

In series [1] the target is T1, human platelets (uptake via SERT) (Homo sapiens, UniProt P31645).
T1 construct: endogenous in cells; host or cells: human platelets in platelet-rich plasma from patients with polycythemia vera or secondary polycythemia
T1 sequence (P31645 whole entry): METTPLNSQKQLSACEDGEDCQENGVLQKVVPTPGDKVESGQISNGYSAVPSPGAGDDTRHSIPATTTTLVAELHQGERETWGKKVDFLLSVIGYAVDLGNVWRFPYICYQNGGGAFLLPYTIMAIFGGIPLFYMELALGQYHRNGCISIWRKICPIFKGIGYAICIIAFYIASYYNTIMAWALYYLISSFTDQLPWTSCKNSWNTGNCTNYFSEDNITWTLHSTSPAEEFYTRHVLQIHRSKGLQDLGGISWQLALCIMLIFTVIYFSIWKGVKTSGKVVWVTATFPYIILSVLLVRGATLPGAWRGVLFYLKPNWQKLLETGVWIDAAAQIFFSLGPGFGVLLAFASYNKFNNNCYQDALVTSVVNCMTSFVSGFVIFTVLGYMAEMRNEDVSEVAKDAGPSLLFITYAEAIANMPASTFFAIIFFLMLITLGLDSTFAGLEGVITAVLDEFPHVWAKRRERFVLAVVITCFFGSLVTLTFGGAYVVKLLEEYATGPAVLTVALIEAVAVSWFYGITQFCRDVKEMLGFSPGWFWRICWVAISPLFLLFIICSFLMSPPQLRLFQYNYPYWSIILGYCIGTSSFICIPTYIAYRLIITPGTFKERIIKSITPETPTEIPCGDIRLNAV
Nature of the series: [3H]serotonin uptake inhibition in isolated human platelets. The format is cell-based. Conditions: 15 min.

The target of series [2] is T1, human platelets (uptake via SERT). Briefly: [125I]MIBG uptake inhibition in isolated human platelets. The format is cell-based.
Series [3] deals with T2, human SK-N-SH neuroblastoma cells (uptake via NET) (Homo sapiens, UniProt P23975).
T2 construct: host or cells: SK-N-SH human neuroblastoma cells
T2 sequence (P23975 whole entry): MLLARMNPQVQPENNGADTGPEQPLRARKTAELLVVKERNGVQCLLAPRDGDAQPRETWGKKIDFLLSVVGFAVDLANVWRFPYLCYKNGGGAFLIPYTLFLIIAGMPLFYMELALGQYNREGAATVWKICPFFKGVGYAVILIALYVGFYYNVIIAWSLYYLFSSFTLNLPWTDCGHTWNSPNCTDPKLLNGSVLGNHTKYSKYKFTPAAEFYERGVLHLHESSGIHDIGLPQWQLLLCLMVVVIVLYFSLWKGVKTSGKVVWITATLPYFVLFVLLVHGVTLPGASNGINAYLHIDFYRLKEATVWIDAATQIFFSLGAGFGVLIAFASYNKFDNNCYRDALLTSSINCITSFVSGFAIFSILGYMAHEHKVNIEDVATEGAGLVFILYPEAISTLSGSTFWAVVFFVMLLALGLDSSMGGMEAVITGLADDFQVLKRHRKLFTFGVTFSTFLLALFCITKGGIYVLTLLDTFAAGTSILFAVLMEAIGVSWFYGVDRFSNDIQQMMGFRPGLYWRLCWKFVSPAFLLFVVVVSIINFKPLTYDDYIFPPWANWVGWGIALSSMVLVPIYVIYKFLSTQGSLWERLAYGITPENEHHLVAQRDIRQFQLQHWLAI
Briefly: [125I]MIBG uptake inhibition in cultured SK-N-SH neuroblastoma cells. The format is cell-based.

Series [4] has as its system SK-N-SH neuroblastoma xenografts. Nature of the series: [125I]MIBG tumor uptake in mice bearing SK-N-SH neuroblastoma xenografts. The format is in vivo, BALB/c nu/nu mice. Conditions: for Effect on [125I]MIBG accumulation in neuroblastoma xenografts (in words): inhibitor IP 30 min before [125I]MIBG, tissues 1 h after, doses as in Fig. 6. How it is done: (§1) Female athymic BALB/c nu/nu mice were bred in the animal facility of the Netherlands Cancer Institute. Experiments were performed in accordance with the national regulations for animal experimentations and approved by the local animal welfare committee. Subcutaneous (s.c.) neuroblastoma tumors consisted of either first passages of intrasplenic-induced SK-N-SH xenografts or later passages from s.c. propagation of the xenograft. […] The tumor volume doubling time was on average 5 days. The toxicity of each monoamine transporter inhibitor was assessed in 2 to 5 non-tumor-bearing nude mice by 1 h careful observation following intraperitoneal (IP) injection of the monoamine transporter inhibitor. Applied inhibitor doses were based on earlier studies (summarized in Electronic Supplementary Material: Table I) and varied from 2 to 50 mg/kg. Provided that no toxicity was observed, plasma of these animals was subsequently analyzed in the ex vivo bioassay described below. […]. First, mice were treated IP with either a monoamine transporter inhibitor or sodium chloride (control). Thirty minutes later, they received an injection in the tail vein with 1 μg MIBG spiked with 4.0–8.0 kBq [^125I]MIBG. One hour after administration of the radiopharmaceutical, the animals were bled from the carotid artery under ether anesthesia and dissected. Tumors and tissues of interest were blotted to remove adhering blood, weighted, and gamma counted. The [^125I]MIBG tissue levels were expressed as the percentage of the injected radioactivity dose per gram tissue. Mice bearing PC12 pheochromocytoma xenografts induced by direct s.c. injections of PC12 cells were used in similar uptake and inhibition experiments.

The test system of series [5] is PC12 pheochromocytoma xenografts. Nature of the series: [125I]MIBG tumor uptake in mice bearing PC12 pheochromocytoma xenografts. It counts as in vivo. Conditions: for Effect on tumor MIBG uptake in PC12 pheochromocytoma xenografts (in words): data not shown. How it is done: as §1
The conditions of series [6]: cited from earlier work.
Series [7] concerns tryptophan or 5-hydroxytryptophan induced symptoms. Conditions: mice, assay type I, cited from earlier work.
Details of series [8]: method as in ref (3) (a number printed in a supplementary file, which may have a reference list of its own: not looked up in the article's list). Conditions: mice, 24 mg/kg i.v., fifteen min after administration; ref (3); cited from earlier work.
In a further series the test system is platelet function. Conditions: plasma concentrations that will inhibit SERT; cited from earlier work.
Series [9] relates to amphetamine-stimulated locomotor activity. Set-up: method as in ref (8) (a number printed in a supplementary file, which may have a reference list of its own: not looked up in the article's list). Conditions: mice, i.p., assay type IV; ref (8); cited from earlier work.
Series [10] has as its target T3, SERT (Homo sapiens, UniProt P31645).
T3 construct: host or cells: HEK293 (ATCC CRL-3216), transient transfection
It counts as cell-based.

The next series concerns the target T4, NET (Homo sapiens, UniProt P23975).
T4 construct: host or cells: HEK293 (ATCC CRL-3216), transient transfection
Nature of the series: [125I]MIBG uptake and its inhibition in NET-transfected HEK293 cells (HEK-NET). It counts as cell-based.

Series [11] concerns SERT. Conditions: cited from earlier work.
The mark [12] stands for this setting: [125I]MIBG as substrate, HEK-SERT.
Where [13] appears, read: [125I]MIBG as substrate, HEK-NET.

T4 sequence (P23975 whole entry): as above
T3 sequence (P31645 whole entry): as the sequence (P31645 whole entry) above

Take `CC(N)C(=O)OC(C)(C)Cc1ccc(Cl)cc1` (centres unmarked) [Alaproclate, alaproclate-HCl]: the IC50 turned out to be 516 nM in series [1] (10^−8 M substrate, 37 °C); 38 nM in series [2] (10^−8 M substrate, 37 °C, 4 h); 43400 nM in series [3]. Further, the “Selectivity factor, IC50 ratio” value in [3] turned out to be 1158.

Take `CN(C)CCCC1(c2ccc(F)cc2)OCc2cc(C#N)ccc21` (centres unmarked) [Citalopram, citalopram-HBr]: the “Effect on [125I]MIBG accumulation in neuroblastoma xenografts (in words)” value (“Effect on [125I]MIBG accumulation” for short) in [4] is “not significantly affected”. In addition, the “Effect on tumor MIBG uptake in PC12 pheochromocytoma xenografts (in words)” value (“Effect on tumor MIBG uptake” below) in [5] was “no significant difference”. For the same molecule, in [6] (after oral ingestion), the Plasma half-life is 33 to 54 h and the “Time to maximum plasma drug levels” value is on record as at most 4 h. Moreover, the “Absorption after oral ingestion (in words)” value in [6] is reported as “completely absorbed”. Further, the “50 % effective dose” value in series [7] (i.p., ref (1)) is reported as 0.9^c mg/kg. The “50 % effective dose” value in series [7] (oral, ref (2)) is 1.2^c mg/kg. For the same molecule, in series [8], the Plasma level was 6 µM. Further, the “Effect on platelet function (in words)” value in the series on platelet function is reported as “no effect on platelet function”.

As to `CNCCCN1c2ccccc2CCc2ccccc21` [Desipramine, desipramine-HCl], in series [4] (20 mg/kg IP 30 min before [125I]MIBG), the “Decrease of [125I]MIBG accumulation in neuroblastoma xenografts” value came out at 60%. Moreover, the “Effect on [125I]MIBG accumulation” value in [4] is reported as “profoundly decreased”. Besides, in series [5], the “Effect on tumor MIBG uptake” value is given as “same reduction of MIBG uptake as seen in SK-N-SH neuroblastoma xenografts”. For the same molecule, the “50 % effective dose” value was >39^c mg/kg in series [7] (i.p., ref (1)) and 20 – 320^c mg/kg in series [7] (oral, ref (2, 4, 7)). In addition, the “Reported effective dose (cell not marked as 50 % effective dose)” value in series [9] was 5 to 36 mg/kg.

As to `CNCCC(Oc1ccc(C(F)(F)F)cc1)c1ccccc1` (centres unmarked) [Fluoxetine, fluoxetine-HCl], the Elimination half-life in series [6] is 24 to 96 h.

Regarding `COCCCC/C(=N\OCCN)c1ccc(C(F)(F)F)cc1` [Fluvoxamine, fluvoxamine-maleate], the “Inhibition of [125I]MIBG uptake in HEK-SERT cells (in words)” value on SERT [10] (1 h, substrate 10^−6 M) is given as “potently inhibited”. Also, the “Inhibition of [125I]MIBG uptake in HEK-NET cells (in words)” value at NET (1 h, substrate 10^−6 M) is listed as “no significant inhibitory effect at low concentrations”. Moreover, in series [1] (co-incubation), the “Inhibition of [3H]serotonin uptake in human platelets (in words)” value is “effective, inhibitor concentration-dependent inhibition”. In addition, the “Inhibition of [125I]MIBG uptake in human platelets (in words)” value in series [2] (co-incubation, 4 h) is reported as “effective, inhibitor concentration-dependent inhibition”. Also, the “Effect on [125I]MIBG accumulation” value in series [4] is listed as “no effect; also recorded: not significantly affected”. Also, the “Reduction of pheochromocytoma-associated radioactivity” value in [5] (PC12 xenografts, p < 0.002) came out at 64%. For the same molecule, the “50 % effective dose” value in series [7] (oral, ref (2)) was 13^c mg/kg.

On to `CN(C)CCCN1c2ccccc2CCc2ccccc21` [Imipramine, imipramine-HCl], for which the “Inhibition of [125I]MIBG uptake in human platelets (in words)” value in [2] is “able to inhibit”. Also, the “Effect on MIBG uptake in neuroblastoma cells (in words)” value in series [3] is listed as “profound inhibitory effect”.

`N=C(N)NCc1cccc(I)c1` [MIBG, meta-iodobenzylguanidine]: the Km stood at 9.7 µM at SERT [10] ([125I]MIBG as substrate, HEK-SERT, 1 h incubation) and 0.49 µM on NET ([125I]MIBG as substrate, HEK-NET, 1 h incubation).

With `N=C(N)NCc1cccc([131I])c1` [MIBG, meta-iodobenzylguanidine], the “Nonspecific uptake, share of total uptake” value came out at 22% at SERT [10] (SERT-transfected cells, substrate concentration 10^−5 M) and 33% at NET (NET-transfected cells, substrate concentration 10^−5 M). For the same molecule, the “Catalytic efficiency (ratio Vmax/Km)” value is recorded as 0.0077 on SERT [10] (setting [12]) and 0.045 at NET (setting [13]). In addition, the Vmax is given as 0.074 μmol/mg protein/min at SERT [10] (setting [12]) and 0.022 μmol/mg protein/min on NET (setting [13]). For the same molecule, the “Total uptake (percentage of added radioactivity)” value in [2] (control platelet samples without SSRIs, MIBG, n = 17) was determined as 23.6 ± 3.6%. Moreover, the “Nonspecific uptake (percentage of controls)” value in series [2] (platelets, MIBG) turned out to be 12.3 ± 2.5%.

For the molecule `NCCC(Oc1ccc(C(F)(F)F)cc1)c1ccccc1` (centres unmarked) [Norfluoxetine, norfluoxetine-HCl], the IC50 in series [3] (10^−8 M substrate, 37 °C, 4 h, read-out: IC50 of uptake inhibition, SK-N-SH, [125I]MIBG) is 2760 nM. The Elimination half-life in series [6] was 170 to 360 h.

For the molecule `Fc1ccc([C@@H]2CCNC[C@H]2COc2ccc3c(c2)OCO3)cc1` [Paroxetine, paroxetine-HCl], in series [4], the “Effect on [125I]MIBG accumulation” value is “no effect; also recorded: not significantly affected”. Also, in series [6] (extensive first-pass metabolism), the Bioavailability entry was “approximately 50%”. The “50 % effective dose” value in series [7] (i.p., ref (1)) is 0.2^c mg/kg.

For the molecule `CN[C@H]1CC[C@@H](c2ccc(Cl)c(Cl)c2)c2ccccc21` [Sertraline, sertraline-HCl], in series [4], the “Effect on [125I]MIBG accumulation” value is given as “not significantly affected”. In addition, the “Effect on tumor MIBG uptake” value in [5] is listed as “no significant difference”. Further, in series [6], the “Fraction absorbed after oral ingestion” value was 44%. Further, the “50 % effective dose” value in series [7] (i.p., ref (1)) was 1.5^c mg/kg; in [7] (oral, ref (2)) it was 1.0^c mg/kg.

Take `CNCCCC1(c2ccc(F)cc2)OCc2cc(C#N)ccc21` (centres unmarked) [desmethylcitalopram]: in the series on SERT [11], the “Potency and selectivity in inhibiting SERT in vitro compared with citalopram (in words)” value is “only slightly less potent and selective than citalopram”.

These data come from paper PMC7343696 (EJNMMI Research, 2020).
